From ChEMBL document CHEMBL1146421, “1,3-Dimethylisoguanine, a new purine from the marine sponge Amphimedon viridis” (1997)

What was measured:
[1] = Increase in contractions of electrically stimulated guinea pig longitudinal muscle/myenteric plexus at 2 mM; type: functional, Cavia porcellus, Muscle tissue
[2] = organism: Cavia porcellus; test: Increase in contractions of electrically stimulated guinea pig longitudinal muscle/myenteric plexus; type: functional, tissue-based; details: Muscle tissue
[3] = Increase in contractions of electrically stimulated guinea pig longitudinal muscle/myenteric plexus at 0.1 mM; type: functional, Cavia porcellus, Muscle tissue

SMILES	Activity [1] [%]	Activity [2]	Activity [3] [%]
Cn1c(=N)c2nc[nH]c2n(C)c1=O	34	–	–
C/N=c1\ncn(C)c2c1[nH]c(=O)n2C [CAISSARONE]	–	Dose-dependent effect	80
